In patent publication US20210254056A1, “IDENTIFICATION AND TARGETED MODULATION OF GENE SIGNALING NETWORKS” (CAMP4 THERAPEUTICS CORPORATION, priority 2017, published 2021):

System: hepatocytes
Assay: RNA-seq of hepatocytes treated with Phase III failure compounds
Protocol: RNA-seq was performed to determine the effects of the compounds on hepatocytes.
Significance was determined by the criteria of FPKM≥0.5, a log 2(fold-change)≥1, and a […].

Cn1cnc2c(F)c(Nc3ccc(Br)cc3Cl)c(C(=O)NOCCO)cc21 [Selumetinib]
RNA-seq results, CYP2B6 expression: 0.38 | RNA-seq results, CYP2C19 expression: 0.76 | RNA-seq results, CYP2D6 expression: 0.03 | RNA-seq results, CYP3A4 expression: 0.08 | RNA-seq results, CYP7B1 expression: −0.15 | RNA-seq results, CYP39A1 expression: −0.27 | RNA-seq results: CYP2B6 expression: −0.08 | RNA-seq results: CYP2C19 expression: 0.1 | RNA-seq results: CYP2D6 expression: 0.16 | RNA-seq results: CYP3A4 expression: 0.11 | RNA-seq results: CYP7B1 expression: −0.3 | RNA-seq results: CYP39A1 expression: 0.08 | RNA-seq results: A1BG expression (gene A1BG, hepatocytes): 0.00 | RNA-seq results: AGTR1 expression (gene AGTR1, hepatocytes): −0.55 | RNA-seq results: AGXT expression (gene AGXT, hepatocytes): 0.22 | RNA-seq results: AHI1 expression (gene AHI1, hepatocytes): 0.01 | RNA-seq results: AMPD3 expression (gene AMPD3, hepatocytes): 0.22 | RNA-seq results: AMT expression (gene AMT, hepatocytes): 0.29 | RNA-seq results: ANGPTL3 expression (gene ANGPTL3, hepatocytes): −0.67 | RNA-seq results: ANKS4B expression (gene ANKS4B, hepatocytes): −0.06 | RNA-seq results: ANKS6 expression (gene ANKS6, hepatocytes): −0.02 | RNA-seq results: ANPEP expression (gene ANPEP, hepatocytes): 0.04 | RNA-seq results: AOC2 expression (gene AOC2, hepatocytes): 0.28 | RNA-seq results: APOA2 expression (gene APOA2, hepatocytes): −0.45 | RNA-seq results: APOA5 expression (gene APOA5, hepatocytes): 0.13 | RNA-seq results: APOB expression (gene APOB, hepatocytes): −0.10 | RNA-seq results: COG5 expression (gene COG5, hepatocytes): −0.14 | RNA-seq results: COG6 expression (gene COG6, hepatocytes): 0.1 | RNA-seq results: COL1A1 expression (gene COL1A1, hepatocytes): 0.41 | RNA-seq results: COX6A1 expression (gene COX6A1, hepatocytes): 0.02 | RNA-seq results: CP expression (gene CP, hepatocytes): 0.26 | RNA-seq results: CPS1 expression (gene CPS1, hepatocytes): 0.52 | RNA-seq results: CPT1A expression (gene CPT1A, hepatocytes): 0.19 | RNA-seq results: CPT2 expression (gene CPT2, hepatocytes): −0.2 | RNA-seq results: CROT expression (gene CROT, hepatocytes): −0.4 | RNA-seq results: CSPP1 expression (gene CSPP1, hepatocytes): −0.14 | RNA-seq results: CTC1 expression (gene CTC1, hepatocytes): 0.03 | RNA-seq results: CTDSP2 expression (gene CTDSP2, hepatocytes): −0.14 | RNA-seq results: CTH expression (gene CTH, hepatocytes): 0.67 | RNA-seq results: CTNS expression (gene CTNS, hepatocytes): 0.69 | RNA-seq results: CTSF expression (gene CTSF, hepatocytes): 0.19 | RNA-seq results: CTSK expression (gene CTSK, hepatocytes): 0.08 | RNA-seq results: CYB5A expression (gene CYB5A, hepatocytes): −0.09 | RNA-seq results: CYB5R3 expression (gene CYB5R3, hepatocytes): 0.1 | RNA-seq results: CYP27A1 expression (gene CYP27A1, hepatocytes): 0.14 | RNA-seq results: DAO expression (gene DAO, hepatocytes): −0.11 | RNA-seq results: DBT expression (gene DBT, hepatocytes): −0.16 | RNA-seq results: DCDC2 expression (gene DCDC2, hepatocytes): −1.04 | RNA-seq results: DCXR expression (gene DCXR, hepatocytes): 0.01 | RNA-seq results: FABP1 expression (gene FABP1, hepatocytes): 0.06 | RNA-seq results: FADD expression (gene FADD, hepatocytes): −0.08 | RNA-seq results: FAM111A expression (gene FAM111A, hepatocytes): 0.12 | RNA-seq results: FAM111B expression (gene FAM111B, hepatocytes): −1.27 | RNA-seq results: FAN1 expression (gene FAN1, hepatocytes): −0.37 | RNA-seq results: FARS2 expression (gene FARS2, hepatocytes): −0.21 | RNA-seq results: FASLG expression (gene FASLG, hepatocytes): −0.55 | RNA-seq results: FGA expression (gene FGA, hepatocytes): 0.07 | RNA-seq results: FGD1 expression (gene FGD1, hepatocytes): −0.4 | RNA-seq results: FGFR2 expression (gene FGFR2, hepatocytes): −0.97 | RNA-seq results: FIG4 expression (gene FIG4, hepatocytes): 0.29 | RNA-seq results: FIS1 expression (gene FIS1, hepatocytes): −0.06 | RNA-seq results: FTCD expression (gene FTCD, hepatocytes): 0.18 | RNA-seq results: FTH1 expression (gene FTH1, hepatocytes): 0.45 | RNA-seq results: FUCA1 expression (gene FUCA1, hepatocytes): 0.02 | RNA-seq results: FXN expression (gene FXN, hepatocytes): −0.33 | RNA-seq results: G6PC3 expression (gene G6PC3, hepatocytes): −0.17 | RNA-seq results: G6PC expression (gene G6PC, hepatocytes): 1.05 | RNA-seq results: G6PD expression (gene G6PD, hepatocytes): 0.7 | RNA-seq results: GALK1 expression (gene GALK1, hepatocytes): 0.05 | RNA-seq results: GALK2 expression (gene GALK2, hepatocytes): 0.08 | RNA-seq results: GALT expression (gene GALT, hepatocytes): 0.37 | RNA-seq results: GATA6 expression (gene GATA6, hepatocytes): −0.01 | RNA-seq results: GATM expression (gene GATM, hepatocytes): −0.21 | RNA-seq results: GBA expression (gene GBA, hepatocytes): 0.33 | RNA-seq results: GBE1 expression (gene GBE1, hepatocytes): 0.06 | RNA-seq results: GCH1 expression (gene GCH1, hepatocytes): 0.02 | RNA-seq results: GCKR expression (gene GCKR, hepatocytes): 0.43 | RNA-seq results: GCLC expression (gene GCLC, hepatocytes): 0.07 | RNA-seq results: GOSH expression (gene GOSH, hepatocytes): −0.26 | RNA-seq results: RRM2B (gene RRM2B, hepatocytes): −0.30 | RNA-seq results: RSAD1 (gene RSAD1, hepatocytes): −0.06 | RNA-seq results: SAMHD1 (gene SAMHD1, hepatocytes): −0.29 | RNA-seq results: SC5D (gene SC5D, hepatocytes): −0.23 | RNA-seq results: SCARB1 (gene SCARB1, hepatocytes): 0.08 | RNA-seq results: SCN9A (gene SCN9A, hepatocytes): 0.14 | RNA-seq results: SDCCAG8 (gene SDCCAG8, hepatocytes): −0.25 | RNA-seq results: SEPN1 (gene SEPN1, hepatocytes): −0.10 | RNA-seq results: SERAC1 (gene SERAC1, hepatocytes): −0.29 | RNA-seq results: SERPINA1 (gene SERPINA1, hepatocytes): 0.01 | RNA-seq results: SERPING1 (gene SERPING1, hepatocytes): −0.11 | RNA-seq results: SERPINI1 (gene SERPINI1, hepatocytes): −0.36 | RNA-seq results: SETBP1 (gene SETBP1, hepatocytes): 0.22 | RNA-seq results: SFXN4 (gene SFXN4, hepatocytes): −0.33 | RNA-seq results: SLC10A1 (gene SLC10A1, hepatocytes): 0.00 | RNA-seq results: SLC10A3 (gene SLC10A3, hepatocytes): 0.23 | RNA-seq results: SLC10A5 (gene SLC10A5, hepatocytes): 0.63 | RNA-seq results: SLC10A7 (gene SLC10A7, hepatocytes): −0.35 | RNA-seq results: SLC11A2 (gene SLC11A2, hepatocytes): −0.26 | RNA-seq results: SLC19A1 (gene SLC19A1, hepatocytes): −0.42 | RNA-seq results: SLC19A2 (gene SLC19A2, hepatocytes): 0.22 | RNA-seq results: SLC19A3 (gene SLC19A3, hepatocytes): 0.00 | RNA-seq results: SLC22A1 (gene SLC22A1, hepatocytes): −0.07 | RNA-seq results: SLC22A5 (gene SLC22A5, hepatocytes): 0.32 | RNA-seq results: SLC25A1 (gene SLC25A1, hepatocytes): 0.11 | RNA-seq results: SLC25A10 (gene SLC25A10, hepatocytes): −0.12 | RNA-seq results: SLC25A12 (gene SLC25A12, hepatocytes): −0.11 | RNA-seq results: SLC25A13 (gene SLC25A13, hepatocytes): −0.15 | RNA-seq results: SLC25A15 (gene SLC25A15, hepatocytes): −0.21 | RNA-seq results: SLC25A19 (gene SLC25A19, hepatocytes): −0.35 | RNA-seq results: SLC25A20 (gene SLC25A20, hepatocytes): −0.28 | RNA-seq results: SLC25A29 (gene SLC25A29, hepatocytes): 0.25 | RNA-seq results: SLC25A32 (gene SLC25A32, hepatocytes): −0.44
